Read-outs that look alike come from different tables or passages of the source.

The target in this assay is T1, HDAC6 enzyme (Homo sapiens, UniProt Q9UBN7).
T1 construct: transducing full length HDAC6 gene into Sf-9 insect cells; GST; purchased SignalChem; host or cells: Sf-9 insect cells
T1 sequence (Q9UBN7 1-1215): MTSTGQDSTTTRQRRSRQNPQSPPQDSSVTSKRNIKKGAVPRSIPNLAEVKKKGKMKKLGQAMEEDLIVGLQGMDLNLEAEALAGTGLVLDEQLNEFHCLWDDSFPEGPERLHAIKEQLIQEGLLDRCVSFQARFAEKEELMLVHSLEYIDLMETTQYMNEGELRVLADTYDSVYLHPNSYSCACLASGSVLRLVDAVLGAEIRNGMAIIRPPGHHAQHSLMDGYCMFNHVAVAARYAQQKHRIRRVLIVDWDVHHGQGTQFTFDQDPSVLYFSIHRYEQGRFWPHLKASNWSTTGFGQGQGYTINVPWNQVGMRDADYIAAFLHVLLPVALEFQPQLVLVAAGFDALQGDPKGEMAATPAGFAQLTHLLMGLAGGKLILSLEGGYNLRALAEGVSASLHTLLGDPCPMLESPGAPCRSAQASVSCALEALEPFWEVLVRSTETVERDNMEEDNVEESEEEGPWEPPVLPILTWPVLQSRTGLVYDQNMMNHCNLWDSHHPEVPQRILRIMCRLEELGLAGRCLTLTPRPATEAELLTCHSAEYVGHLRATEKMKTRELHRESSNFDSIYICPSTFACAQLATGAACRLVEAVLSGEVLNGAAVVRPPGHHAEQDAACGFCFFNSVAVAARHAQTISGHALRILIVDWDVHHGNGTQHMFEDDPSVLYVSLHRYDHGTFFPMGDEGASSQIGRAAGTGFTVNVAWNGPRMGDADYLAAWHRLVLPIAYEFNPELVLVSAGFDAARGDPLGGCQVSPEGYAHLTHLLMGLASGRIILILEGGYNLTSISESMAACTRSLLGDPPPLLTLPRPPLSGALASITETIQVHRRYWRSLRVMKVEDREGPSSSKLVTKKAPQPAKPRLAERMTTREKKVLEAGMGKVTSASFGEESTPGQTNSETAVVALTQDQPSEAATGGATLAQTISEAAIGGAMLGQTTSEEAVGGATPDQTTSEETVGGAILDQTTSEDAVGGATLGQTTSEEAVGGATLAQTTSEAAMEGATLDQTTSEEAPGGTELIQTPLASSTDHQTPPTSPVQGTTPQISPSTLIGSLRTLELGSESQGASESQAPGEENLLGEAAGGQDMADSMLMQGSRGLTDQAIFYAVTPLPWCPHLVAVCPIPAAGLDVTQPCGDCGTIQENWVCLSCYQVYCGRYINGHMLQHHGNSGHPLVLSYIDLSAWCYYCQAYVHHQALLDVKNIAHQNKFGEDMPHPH
Description: HDAC6 enzyme inhibitory activity (HDAC-Glo I/II Assay kit). It is filed as biochemical. The settings on record: read-out: HDAC6 inhibitory rate (%) (10 μM). In short, it runs like this: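 Luminescent HDAC-Glo I/II readout after 20 min room-temperature reaction with substrate-developer, following 60 min compound–enzyme preincubation. Enzyme: full-length HDAC6 from Sf-9 cells, GST-purified; buffer 24 mM Tris-HCl pH 7.5, 0.01% Tween-20, glutathione, salts. Wells lacking enzyme define 100% inhibition.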

The mark [1] stands for this setting: 10 μM, wells without enzyme = 100% inhibition.

Consider `O=C1c2cc(-c3nnc(C(F)F)o3)cnc2CN1[C@@H]1CCCC[C@H]1NC(=O)C(F)(F)F` [Example 215, N-((1R,2R)-2-(3-(5-(difluoromethyl)-1,3,4-oxadiazol-2-yl)-5-oxo-5,7-dihydro-6H-pyrrolo[3,4-b]pyridin-6-yl)cyclohexyl)-2,2,2-trifluoroacetamide], for which the inhibition at 10 µM under setting [1] came to 101%.
The same measure, in the same setting: in the case of `O=C1c2cc(-c3nnc(C(F)F)o3)cnc2CN1[C@@H]1CCCC[C@H]1NC(=O)C1(F)CC1` [Example 216, N-((1R,2R)-2-(3-(5-(difluoromethyl)-1,3,4-oxadiazol-2-yl)-5-oxo-5,7-dihydro-6H-pyrrolo[3,4-b]pyridin-6-yl)cyclohexyl)-1-fluorocyclopropanecarboxamide] it was 100%; in that of `CC(C)(C(=O)N[C@@H]1CCCC[C@H]1N1Cc2ncc(-c3nnc(C(F)F)o3)cc2C1=O)C(F)(F)F` [Example 217, N-((1R,2R)-2-(3-(5-(difluoromethyl)-1,3,4-oxadiazol-2-yl)-5-oxo-5,7-dihydro-6H-pyrrolo[3,4-b]pyridin-6-yl)cyclohexyl)-3,3,3-trifluoro-2,2-dimethylpropanamide], 98%; in that of `O=C1c2cc(-c3nnc(C(F)F)o3)cnc2CN1[C@@H]1CCCC[C@H]1NC(=O)C1(F)CCC1` [Example 218, N-((1R,2R)-2-(3-(5-(difluoromethyl)-1,3,4-oxadiazol-2-yl)-5-oxo-5,7-dihydro-6H-pyrrolo[3,4-b]pyridin-6-yl)cyclohexyl)-1-fluorocyclobutanecarboxamide], 100%.
The same measure, in the same setting: in the case of `O=C1c2cc(-c3nnc(C(F)F)o3)cnc2CN1[C@@H]1CCCC[C@H]1NC(=O)C1(C(F)(F)F)CCC1` [Example 219] it was 100%; in that of `O=C1c2cc(-c3nnc(C(F)F)o3)ccc2CN1[C@@H]1CCCC[C@H]1O` [Example 220, 6-(5-(difluoromethyl)-1,3,4-oxadiazol-yl)-2-((1R,2R)-2-hydroxycyclohexyl)-isoindolin-1-one], 94%.
On to `O=C1c2cc(-c3nnc(C(F)F)o3)cnc2CN1[C@@H]1CCCC[C@H]1NC(=O)C1(c2ccc(F)cc2)CC1` [Example 221, N-((1R,2R)-2-(3-(5-(difluoromethyl)-1,3,4-oxadiazol-2-yl)-5-oxo-5,7-dihydro-6H-pyrrolo[3,4-b]pyridin-6-yl)cyclohexyl)-1-(4-fluorophenyl)-cyclopropanecarboxamide], for which the inhibition at 10 µM under setting [1] is 101%.
Same read-out and setting: under `O=C(N[C@@H]1CCCC[C@H]1N1Cc2ncc(-c3nnc(C(F)F)o3)cc2C1=O)c1ccccc1F` [Example 222, N-((1R,2R)-2-(3-(5-(difluoromethyl)-1,3,4-oxadiazol-2-yl)-5-oxo-5,7-dihydro-6H-pyrrolo[3,4-b]pyridin-6-yl)cyclohexyl)-2-fluorobenzamide] stands 99%; under `N#Cc1ccccc1C(=O)N[C@@H]1CCCC[C@H]1N1Cc2ncc(-c3nnc(C(F)F)o3)cc2C1=O` [Example 223, 2-cyano-N-((1R,2R)-2-(3-(5-(difluoro-methyl)-1,3,4-oxadiazol-2-yl)-5-oxo-5,7-dihydro-6H-pyrrolo[3,4-b]-pyridin-6-yl)cyclohexyl)benzamide], 99%.
Regarding `O=C(N[C@@H]1CCCC[C@H]1N1Cc2ncc(-c3nnc(C(F)F)o3)cc2C1=O)c1cccc(F)c1` [Example 224, N-((1R,2R)-2-(3-(5-(difluoromethyl)-1,3,4-oxadiazol-2-yl)-5-oxo-5,7-dihydro-6H-pyrrolo[3,4-b]pyridin-6-yl)cyclohexyl)-3-fluorobenzamide], the inhibition at 10 µM under setting [1] came out at 100%.
On the same count and under the same terms, in the case of `N#Cc1cccc(C(=O)N[C@@H]2CCCC[C@H]2N2Cc3ncc(-c4nnc(C(F)F)o4)cc3C2=O)c1` [Example 225, 3-cyano-N-((1R,2R)-2-(3-(5-(difluoro-methyl)-1,3,4-oxadiazol-2-yl)-5-oxo-5,7-dihydro-6H-pyrrolo[3,4-b]pyridin-6-yl)cyclohexyl)benzamide] it was 98%.
On the same count and under the same terms, in the case of `O=C(N[C@@H]1CCCC[C@H]1N1Cc2ncc(-c3nnc(C(F)F)o3)cc2C1=O)c1cccc(C(F)(F)F)c1` [Example 226, N-((1R,2R)-2-(3-(5-(difluoromethyl)-1,3,4-oxadiazol-2-yl)-5-oxo-5,7-dihydro-6H-pyrrolo[3,4-b]pyridin-6-yl)cyclohexyl)-3-(trifluoromethyl)-benzamide] it was 99%; in that of `O=C1c2cc(-c3nnc(C(F)F)o3)cc(F)c2CN1C[C@H]1COCCN1CC(F)(F)C(F)(F)F` [Example 227, 6-(5-(difluoromethyl)-1.3,4-oxadiazol-2-yl)-4-fluoro-2-(((3S)-4-(2,2,3,3,3-pentafluoropropyl)morpholin-3-yl)-methyl)isoindolin-1-one], 100%; in that of `O=C1c2cc(-c3nnc(C(F)F)o3)cc(F)c2CN1C[C@H]1COCCN1CC(F)(F)C(F)F` [Example 228, 6-(5-(difluoromethyl)-1,3,4-oxadiazol-2-yl)-4-fluoro-2-(((3S)-4-(2,2,3,3-tetrafluoropropyl)morpholin-3-yl)-methyl)isoindolin-1-one], 98%.
Turning to `O=C1c2cc(-c3nnc(C(F)F)o3)cc(F)c2CN1C[C@H]1COCCN1CC(F)(F)C(F)(F)C(F)(F)F` [Example 229, 6-(5-(difluoromethyl)-1,3,4-oxadiazol-2-yl)-4-fluoro-2-(((3S)-4-(2,2,3,3,4,4,4-heptafluorobutyl)-morpholin-3-yl)methyl)isoindolin-1-one], the inhibition at 10 µM amounted to 100%.
Turning to `N#Cc1ccccc1-c1ccccc1N1Cc2ccc(-c3nnc(C(F)F)o3)cc2C1=O` [Example 230, 2′-(6-(5-(difluoromethyl)-1,3,4-oxadiazol-2-yl)-1-oxo-1,3-dihydro-2H-isoindol-2-yl)-biphenyl-2-carbonitrile], the inhibition at 10 µM under setting [1] was found to be 100%.
The same measure, in the same setting: under `N[C@@H]1CCCC[C@H]1N1Cc2ncc(-c3nnc(C(F)F)o3)cc2C1=O` [Example 231, 6-((1R,2R)-2-aminocyclohexyl)-3-(5-(difluoromethyl)-1,3,4-oxadiazol-2-yl)-6,7-dihydro-5H-pyrrolo[3,4-b]pyridin-5-one] stands 98%; under `O=C(O[C@@H]1CCCC[C@H]1N1Cc2ccc(-c3nnc(C(F)F)o3)cc2C1=O)N1CCC1` [Example 232, (1R,2R)-2-(6-(5-(difluoromethyl)-1,3,4-oxadiazol-2-yl)-1-oxo-1,3-dihydro-2H-isoindol-2-yl)-cyclohexyl azetidine-1-carboxylate], 98%.
The same measure, in the same setting: under `O=C(O[C@@H]1CCCC[C@H]1N1Cc2ccc(-c3nnc(C(F)F)o3)cc2C1=O)N1CCCC1` [Example 233, (1R,2R)-2-(6-(5-(difluoromethyl)-1,3,4-oxadiazol-2-yl)-1-oxo-1,3-dihydro-2H-isoindol-2-yl)-cyclohexyl pyrrolidine-1-carboxylate] stands 100%.
On the same count and under the same terms, in the case of `O=C1c2cc(-c3nnc(C(F)F)o3)ccc2CN1CCOCc1ccccc1` [Example 234, 2-(2-(benzyloxy)ethyl)-6-(5-(difluoromethyl)-1,3,4-oxadiazol-2-yl)isoindolin-1-one] it was 98%; in that of `O=C1c2cc(-c3nnc(C(F)F)o3)cnc2CN1[C@@H]1CCCC[C@H]1NC(=O)C1(C(F)F)CC1` [Example 235, 1-(difluoromethyl)-N-((1R,2R)-2-(3-(5-(difluoromethyl)-1,3,4-oxadiazol-2-yl)-5-oxo-5,7-dihydro-6H-pyrrolo[3,4-b]pyridin-6-yl)-cyclohexyl)cyclopropane-carboxamide], 99%; in that of `O=C1c2cc(-c3nnc(C(F)F)o3)cc(F)c2CN1[C@@H]1CCCC[C@H]1NC(=O)C1(C(F)F)CC1` [Example 236, 1-(difluoromethyl)-N-((1R,2R)-2-(6-(5-(difluoromethyl)-1,3,4-oxadiazol-2-yl)-4-fluoro-1-oxo-1,3-dihydro-2H-isoindol-2-yl)-cyclohexyl)cyclopropanecarbox-amide], 98%.
Take `O=C1c2cc(-c3nnc(C(F)F)o3)cnc2CN1[C@@H]1CCCC[C@H]1NC(=O)C(F)(F)C1CC1` [Example 237]: under setting [1], the inhibition at 10 µM stood at 100%.
